Reference: the OPERA property sets (Mansouri et al. 2018)

logP	SMILES
3.26	CC(=O)c1sc(S(C)=O)c(-c2ccccc2)c1C (stereo not drawn)
3.01	CS(=O)c1nc(-c2ccccc2)cc(C(F)(F)F)n1 (stereo not drawn)
2.06	CCS(=O)c1sccc1[N+](=O)[O-] (stereo not drawn)
1.78	CCS(=O)c1sc(C#N)cc1C#N (stereo not drawn)
3.31	CC(=O)c1sc(S(C)=O)c(C#N)c1-c1ccc(Cl)cc1 (stereo not drawn)
1.69	CS(=O)c1sccc1[N+](=O)[O-] (stereo not drawn)
2.18	CCCS(=O)c1sc(C#N)cc1C#N (stereo not drawn)
2.15	CS(=O)c1sc(C#N)c(Cl)c1C#N (stereo not drawn)
0.91	CS(=O)c1ccsc1 (stereo not drawn)
3.8	Cc1c(C#N)sc(S(C)=O)c1-c1ccc(Cl)cc1 (stereo not drawn)
3.82	CCS(=O)c1ccc(C(=O)c2ccccc2)cc1[N+](=O)[O-] (stereo not drawn)
2.22	CCS(=O)c1sc(C#N)c(C)c1C(C)=O (stereo not drawn)
1.71	CS(=O)c1sccc1Br (stereo not drawn)
2.27	CCOC(=O)c1cc(C#N)c(S(C)=O)s1 (stereo not drawn)
2.31	CCS(=O)c1ccc(Cl)cc1S(C)(=O)=O (stereo not drawn)
3.36	Cc1c(C#N)sc(S(C)=O)c1-c1ccccc1 (stereo not drawn)
2.95	CCCS(=O)c1sc(C#N)c(Cl)c1C#N (stereo not drawn)
4.36	CCCCCC(=O)c1ccc(S(=O)CC)c([N+](=O)[O-])c1 (stereo not drawn)
2.81	CCS(=O)c1sc(C(C)=O)c(C)c1[N+](=O)[O-] (stereo not drawn)
3.44	CCCCS(=O)c1sc(C#N)c(Cl)c1C#N (stereo not drawn)
2.64	CCCCS(=O)c1sc(C#N)cc1C#N (stereo not drawn)
2.22	CCS(=O)c1sc(C(C)=O)c(C)c1C#N (stereo not drawn)
1.4	CS(=O)c1ccc([N+](=O)[O-])s1 (stereo not drawn)
2.15	CCS(=O)c1ccc([N+](=O)[O-])cc1C#N (stereo not drawn)

logP	SMILES
1.82	CCS(=O)c1sc(C(C)=O)c(N)c1C#N (stereo not drawn)
1.31	CCS(=O)c1ccc(C(C)=O)s1 (stereo not drawn)
3.82	CC(=O)c1sc(S(C)=O)c(-c2ccc(Cl)cc2)c1C (stereo not drawn)
2.31	CCS(=O)c1sc(Cl)cc1C#N (stereo not drawn)
0.96	CS(=O)c1sccc1C#N (stereo not drawn)
5.11	CCCCCC1(c2ccc(S(=O)CC)c([N+](=O)[O-])c2)OCCO1 (stereo not drawn)
2.43	CCS(=O)c1ccc2ccccc2n1 (stereo not drawn)
2.65	Cc1sc(S(C)=O)c([N+](=O)[O-])c1C (stereo not drawn)
3.2	CS(=O)c1scc(-c2ccccc2)c1[N+](=O)[O-] (stereo not drawn)
2.52	CCCS(=O)c1sccc1[N+](=O)[O-] (stereo not drawn)
2.64	CCS(=O)c1sc(C(C)=O)c(Cl)c1C#N (stereo not drawn)
3.18	CC(=O)c1sc(S(C)=O)c(-c2ccc(Cl)cc2)c1N (stereo not drawn)
0.91	CS(=O)c1cccs1 (stereo not drawn)
2.19	Cc1csc(S(C)=O)c1[N+](=O)[O-] (stereo not drawn)
1.74	CCS(=O)c1ccc([N+](=O)[O-])cn1 (stereo not drawn)
1.31	CS(=O)c1sc(C#N)cc1C#N (stereo not drawn)
2.1	CCS(=O)c1c(Cl)cncc1Cl (stereo not drawn)
2.8	CCC(=O)c1ccc(S(=O)CC)c([N+](=O)[O-])c1 (stereo not drawn)
2.44	CCS(=O)c1nc(C)c([N+](=O)[O-])c(C)c1C#N (stereo not drawn)
2.29	CCS(=O)c1cnc2ccccc2n1 (stereo not drawn)
1.77	CCS(=O)c1nc(C)cc(C)c1C#N (stereo not drawn)
2.02	COc1c(C#N)sc(S(C)=O)c1C#N (stereo not drawn)
2.93	CC(C)CS(=O)c1sccc1[N+](=O)[O-] (stereo not drawn)
2.35	CCS(=O)c1sc(C#N)c(OC)c1C#N (stereo not drawn)
